In ChEMBL document CHEMBL3621096, “Discovery of Potent and Selective Inhibitors for ADAMTS-4 through DNA-Encoded Library Technology (ELT)” (ACS Med Chem Lett, 2015):

The molecules below were run against Disintegrin and metalloproteinase domain-containing protein 17 (Homo sapiens, UniProt P78536) (assay: Inhibition of human recombinant TACE using Mca-PLAQAV-Dpa-RSSSR-NH2 as substrate preincubated for 15 mins measured every 30 secs for 30 mins by fluorescence assay).
Sequence of Disintegrin and metalloproteinase domain-containing protein 17 (P78536 whole entry, the tested form may be a part): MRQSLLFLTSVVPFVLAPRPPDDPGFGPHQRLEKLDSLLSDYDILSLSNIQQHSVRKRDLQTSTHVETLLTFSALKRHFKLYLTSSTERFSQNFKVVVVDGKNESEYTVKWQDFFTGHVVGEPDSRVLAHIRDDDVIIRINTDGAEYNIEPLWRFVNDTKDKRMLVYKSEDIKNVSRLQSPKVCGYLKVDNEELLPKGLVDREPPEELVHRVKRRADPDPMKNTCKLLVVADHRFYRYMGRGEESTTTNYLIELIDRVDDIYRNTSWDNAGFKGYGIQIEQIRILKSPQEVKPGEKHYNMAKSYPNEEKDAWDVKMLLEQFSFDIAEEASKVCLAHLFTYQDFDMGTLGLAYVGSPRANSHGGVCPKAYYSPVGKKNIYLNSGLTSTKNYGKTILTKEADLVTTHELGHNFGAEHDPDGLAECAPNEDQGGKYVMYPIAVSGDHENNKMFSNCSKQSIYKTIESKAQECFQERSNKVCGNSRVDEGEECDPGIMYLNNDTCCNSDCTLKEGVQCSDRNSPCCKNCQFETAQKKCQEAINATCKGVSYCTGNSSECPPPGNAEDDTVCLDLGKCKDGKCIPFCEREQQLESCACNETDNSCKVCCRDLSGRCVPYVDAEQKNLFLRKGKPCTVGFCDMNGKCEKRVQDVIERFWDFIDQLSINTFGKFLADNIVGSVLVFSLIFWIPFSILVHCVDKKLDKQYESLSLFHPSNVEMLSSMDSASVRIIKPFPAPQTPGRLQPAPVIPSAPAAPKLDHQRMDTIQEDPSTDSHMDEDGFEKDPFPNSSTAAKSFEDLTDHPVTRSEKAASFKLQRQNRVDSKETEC

Row | Structure (SMILES) | IC50
1 | CCN(C(=O)c1ccc(CNc2nc(NCCN3CCN(C)CC3)nc(N3CCc4cc(OC)c(OC)cc4C3)n2)cc1)c1cccc(C)c1 | > 10000 nM

What follows are molecules tested against T1, A disintegrin and metalloproteinase with thrombospondin motifs 5 (Homo sapiens, UniProt Q9UNA0) (assay: Inhibition of ADAMTS5 (unknown origin) using WAAG-3R as substrate preincubated for 15 mins followed by substrate addition measured every 30 secs for 1 hr).
T1 sequence (Q9UNA0 whole entry): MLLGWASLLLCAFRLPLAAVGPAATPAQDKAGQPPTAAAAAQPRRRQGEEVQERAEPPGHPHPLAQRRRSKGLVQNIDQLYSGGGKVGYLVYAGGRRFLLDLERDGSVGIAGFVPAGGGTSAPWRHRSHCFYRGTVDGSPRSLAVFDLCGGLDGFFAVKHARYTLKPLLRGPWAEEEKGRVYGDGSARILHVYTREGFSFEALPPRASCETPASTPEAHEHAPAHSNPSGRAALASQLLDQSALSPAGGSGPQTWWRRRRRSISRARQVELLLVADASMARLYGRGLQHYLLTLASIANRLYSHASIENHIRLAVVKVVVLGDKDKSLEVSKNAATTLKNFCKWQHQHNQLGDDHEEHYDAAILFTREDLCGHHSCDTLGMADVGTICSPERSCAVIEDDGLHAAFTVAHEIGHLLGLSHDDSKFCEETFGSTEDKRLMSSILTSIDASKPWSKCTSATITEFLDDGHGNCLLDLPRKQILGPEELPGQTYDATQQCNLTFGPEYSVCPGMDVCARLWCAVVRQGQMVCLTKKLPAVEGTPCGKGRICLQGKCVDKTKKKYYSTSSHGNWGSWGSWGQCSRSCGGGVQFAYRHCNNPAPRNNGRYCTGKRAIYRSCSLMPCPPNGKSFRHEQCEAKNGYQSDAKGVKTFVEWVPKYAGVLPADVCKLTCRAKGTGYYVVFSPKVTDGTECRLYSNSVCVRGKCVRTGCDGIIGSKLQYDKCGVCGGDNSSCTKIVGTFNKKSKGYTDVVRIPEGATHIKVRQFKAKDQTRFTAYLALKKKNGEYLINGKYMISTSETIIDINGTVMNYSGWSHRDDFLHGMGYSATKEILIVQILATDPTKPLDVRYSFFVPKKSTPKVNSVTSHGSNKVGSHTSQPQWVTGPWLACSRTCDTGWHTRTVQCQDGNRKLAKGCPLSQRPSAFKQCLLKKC

Row | Structure (SMILES) | IC50
2 | CCN(C(=O)c1ccc(CNc2nc(NCCN3CCN(C)CC3)nc(N3CCc4cc(OC)c(OC)cc4C3)n2)cc1)c1cccc(C)c1 | > 10000 nM

These molecules were tested against T2, A disintegrin and metalloproteinase with thrombospondin motifs 13 (Homo sapiens, UniProt Q76LX8) (assay: Inhibition of human recombinant ADAMTS13 using FRETSVWF73 as substrate by fluorescence assay).
T2 sequence (Q76LX8 whole entry): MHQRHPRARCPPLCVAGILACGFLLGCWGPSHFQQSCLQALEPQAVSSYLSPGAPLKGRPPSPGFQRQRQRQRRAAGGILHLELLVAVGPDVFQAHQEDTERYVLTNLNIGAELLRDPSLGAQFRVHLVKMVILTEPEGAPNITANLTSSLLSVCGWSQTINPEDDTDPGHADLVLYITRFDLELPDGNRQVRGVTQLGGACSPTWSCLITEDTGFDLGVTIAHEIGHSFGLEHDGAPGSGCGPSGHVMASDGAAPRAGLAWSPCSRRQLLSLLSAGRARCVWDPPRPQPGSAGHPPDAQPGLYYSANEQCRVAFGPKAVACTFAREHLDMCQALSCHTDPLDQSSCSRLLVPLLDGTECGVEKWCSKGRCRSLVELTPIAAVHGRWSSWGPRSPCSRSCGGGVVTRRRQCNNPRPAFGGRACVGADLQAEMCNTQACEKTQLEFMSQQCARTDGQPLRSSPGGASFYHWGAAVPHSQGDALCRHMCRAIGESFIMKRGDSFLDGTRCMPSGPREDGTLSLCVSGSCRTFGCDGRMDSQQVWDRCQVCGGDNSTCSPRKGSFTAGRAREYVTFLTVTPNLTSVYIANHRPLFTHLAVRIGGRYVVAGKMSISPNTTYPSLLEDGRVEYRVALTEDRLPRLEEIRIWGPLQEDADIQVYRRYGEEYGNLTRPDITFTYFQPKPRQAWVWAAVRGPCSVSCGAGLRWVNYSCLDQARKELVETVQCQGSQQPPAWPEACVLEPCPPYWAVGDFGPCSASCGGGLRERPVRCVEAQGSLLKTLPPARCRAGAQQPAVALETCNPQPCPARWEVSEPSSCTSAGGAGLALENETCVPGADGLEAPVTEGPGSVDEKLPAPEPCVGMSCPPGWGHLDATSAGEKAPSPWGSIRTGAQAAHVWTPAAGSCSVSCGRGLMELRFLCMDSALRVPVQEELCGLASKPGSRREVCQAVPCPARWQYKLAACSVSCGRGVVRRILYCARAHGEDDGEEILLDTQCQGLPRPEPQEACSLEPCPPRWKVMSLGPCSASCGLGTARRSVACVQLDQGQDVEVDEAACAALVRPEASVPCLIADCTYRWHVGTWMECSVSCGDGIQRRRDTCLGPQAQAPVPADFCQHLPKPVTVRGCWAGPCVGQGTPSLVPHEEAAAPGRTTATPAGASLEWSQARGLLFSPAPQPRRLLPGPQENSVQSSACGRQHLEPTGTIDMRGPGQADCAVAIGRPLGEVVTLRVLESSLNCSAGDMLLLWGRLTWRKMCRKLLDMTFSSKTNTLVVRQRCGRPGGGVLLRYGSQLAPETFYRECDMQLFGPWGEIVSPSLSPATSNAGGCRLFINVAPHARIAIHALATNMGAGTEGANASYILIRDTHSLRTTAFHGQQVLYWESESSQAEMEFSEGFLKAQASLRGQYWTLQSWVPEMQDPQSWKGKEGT

Row | Structure (SMILES) | IC50
3 | CCN(C(=O)c1ccc(CNc2nc(NCCN3CCN(C)CC3)nc(N3CCc4cc(OC)c(OC)cc4C3)n2)cc1)c1cccc(C)c1 | > 10000 nM

What follows are molecules tested against T3, A disintegrin and metalloproteinase with thrombospondin motifs 4 (Homo sapiens, UniProt O75173) (assay: Inhibition of recombinant human ADAMTS4 (213 to 575 amino acid residues) using WAAG-3R as substrate preincubated for 15 mins followed by substrate addition measured every 30 secs for 1 hr).
T3 sequence (O75173 whole entry): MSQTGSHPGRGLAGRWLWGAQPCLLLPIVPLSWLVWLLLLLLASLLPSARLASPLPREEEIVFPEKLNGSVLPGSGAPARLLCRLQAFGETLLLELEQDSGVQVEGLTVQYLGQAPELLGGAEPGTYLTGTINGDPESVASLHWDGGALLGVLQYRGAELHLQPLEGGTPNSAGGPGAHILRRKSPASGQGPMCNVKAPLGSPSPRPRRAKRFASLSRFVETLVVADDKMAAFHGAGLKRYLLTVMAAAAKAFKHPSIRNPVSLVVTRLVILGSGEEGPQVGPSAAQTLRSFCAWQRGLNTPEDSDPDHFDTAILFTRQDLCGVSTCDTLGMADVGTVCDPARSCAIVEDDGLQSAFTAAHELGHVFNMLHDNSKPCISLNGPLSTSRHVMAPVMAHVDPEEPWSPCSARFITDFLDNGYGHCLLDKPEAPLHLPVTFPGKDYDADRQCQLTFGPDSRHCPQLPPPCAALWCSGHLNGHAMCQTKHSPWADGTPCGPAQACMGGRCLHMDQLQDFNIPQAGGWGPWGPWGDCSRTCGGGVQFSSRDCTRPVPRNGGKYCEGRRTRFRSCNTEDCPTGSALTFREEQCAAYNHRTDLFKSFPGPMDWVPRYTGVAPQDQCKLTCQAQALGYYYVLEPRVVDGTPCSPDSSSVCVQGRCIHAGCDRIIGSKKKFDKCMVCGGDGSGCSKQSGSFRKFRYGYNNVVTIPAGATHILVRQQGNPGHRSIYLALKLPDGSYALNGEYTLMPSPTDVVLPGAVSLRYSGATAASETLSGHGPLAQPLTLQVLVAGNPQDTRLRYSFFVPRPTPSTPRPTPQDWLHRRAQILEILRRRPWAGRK

Row | Structure (SMILES) | IC50
4 | COc1cc2c(cc1OC)CN(c1nc(NCCN3CCN(C)CC3)nc(NCc3ccc(C(=O)Nc4cccc(C)c4)cc3)n1)CC2 | 518 nM
5 | CCN(C(=O)c1ccc(CNc2ncnc(N3CCc4cc(F)ccc4C3)n2)cc1)c1cccc(C)c1 | 370 nM
6 | CCN(C(=O)c1ccc(CNc2nc(Cl)nc(N3CCc4cc(OC)c(OC)cc4C3)n2)cc1)c1cccc(C)c1 | 102 nM
7 | CCN(C)C(=O)c1ccc(CNc2nc(NCCN3CCN(C)CC3)nc(N3CCc4cc(OC)c(OC)cc4C3)n2)cc1 | 64 nM
8 | CCN(C(=O)c1ccc(CNc2ncnc(N3Cc4ccccc4C3)n2)cc1)c1cccc(C)c1 | 5600 nM
9 | CCN(C(=O)c1ccc(CNc2nc(NCCN3CCN(C)CC3)nc(N3CCCc4ccccc43)n2)cc1)c1cccc(C)c1 | 6500 nM
10 | CCN(C)C(=O)c1ccc(CNc2nc(N3CCN(C)CC3)nc(N3CCc4cc(OC)c(OC)cc4C3)n2)cc1 | 8500 nM
11 | CCN(C(=O)c1ccc(CNc2nc(NCCN3CCN(C)CC3)nc(N3CCc4cc(OC)c(OC)cc4C3)n2)cc1)c1cccc(C)c1 | 10 nM
12 | CCN(C(=O)c1ccc(CNc2nc(NCCN(C)C)nc(N3CCc4cc(OC)c(OC)cc4C3)n2)cc1)c1cccc(C)c1 | 14 nM
13 | CCN(C(=O)c1ccc(CNc2ncnc(N3CCc4ccc(F)cc4C3)n2)cc1)c1cccc(C)c1 | 333 nM
14 | CCN(C(=O)c1ccc(CNc2nc(NCc3ccccc3)nc(N3CCc4cc(OC)c(OC)cc4C3)n2)cc1)c1cccc(C)c1 | 60 nM
15 | CCN(C(=O)c1ccc(CNc2nc(NC(C)C)nc(N3CCc4cc(OC)c(OC)cc4C3)n2)cc1)c1cccc(C)c1 | 60 nM
16 | CCN(C(=O)c1ccc(CNc2nc(NCCc3ccco3)nc(N3CCc4cc(OC)c(OC)cc4C3)n2)cc1)c1cccc(C)c1 | 163 nM
17 | CCN(C(=O)c1ccc(CNc2nc(NC)nc(N3CCc4cc(OC)c(OC)cc4C3)n2)cc1)c1cccc(C)c1 | 30 nM
18 | CCN(C(=O)c1ccc(CNc2nc(Nc3ccccc3)nc(N3CCc4cc(OC)c(OC)cc4C3)n2)cc1)c1cccc(C)c1 | 181 nM
19 | CCN(C(=O)c1ccc(CNc2nc(NCc3ccccc3)nc(N3CCc4ccccc4C3)n2)cc1)c1cccc(C)c1 | 61 nM
20 | CCN(C)C(=O)c1ccc(CNc2ncnc(N3CCc4cc(OC)c(OC)cc4C3)n2)cc1 | 1820 nM

Row | Structure (SMILES) | IC50
21 | CCN(C)C(=O)c1ccc(CNc2nc(NCCN(C)C)nc(N3CCc4cc(OC)c(OC)cc4C3)n2)cc1 | 81 nM
22 | COc1cc2c(cc1OC)CN(c1nc(NCCN3CCN(C)CC3)nc(NCc3ccccc3)n1)CC2 | 3000 nM
23 | CNC(=O)c1ccc(CNc2nc(NCCN3CCN(C)CC3)nc(N3CCc4cc(OC)c(OC)cc4C3)n2)cc1 | 3000 nM
24 | COc1cc2c(cc1OC)CN(c1nc(NCCN3CCN(C)CC3)nc(NCc3ccc(C(=O)O)cc3)n1)CC2 | > 10000 nM
25 | CCN(C)C(=O)c1ccc(CNc2nc(N3CCN(C)CC3)nc(N3CCc4ccccc4C3)n2)cc1 | 5500 nM
26 | CCN(C(=O)c1ccc(CNc2nc(O)nc(N3CCc4cc(OC)c(OC)cc4C3)n2)cc1)c1cccc(C)c1 | 22 nM
27 | CCN(C(=O)c1ccc(CNc2nc(NCCN3CCN(C)CC3)nc(N3CCc4ccccc4C3)n2)cc1)c1cccc(C)c1 | 6 nM
28 | CCN(C(=O)c1ccc(CNc2ncnc(NCc3ccc(OC)c(OC)c3)n2)cc1)c1cccc(C)c1 | 158 nM
29 | CCN(C(=O)c1ccc(CNc2nc(NCC(=O)O)nc(N3CCc4cc(OC)c(OC)cc4C3)n2)cc1)c1cccc(C)c1 | 88 nM
30 | CCN(C(=O)c1ccc(CNc2nc(NC3CCCCC3)nc(N3CCc4cc(OC)c(OC)cc4C3)n2)cc1)c1cccc(C)c1 | 284 nM
31 | CCN(C(=O)c1ccc(CNc2ncnc(N3CCc4cc(OC)c(OC)cc4C3)n2)cc1)c1cccc(C)c1 | 23 nM
32 | CCN(C(=O)c1ccc(CNc2ncnc(N3CCc4ccccc4C3)n2)cc1)c1cccc(C)c1 | 63 nM
33 | CCN(C(=O)c1ccc(CNc2ncnc(N3CCCCC3)n2)cc1)c1cccc(C)c1 | > 10000 nM
34 | CCN(C)C(=O)c1ccc(CNc2nc(NCCN(C)C)nc(N3CCc4ccccc4C3)n2)cc1 | 43 nM
35 | CCN(C)C(=O)c1ccc(CNc2ncnc(N3CCc4ccccc4C3)n2)cc1 | 1700 nM
36 | CCN(C(=O)c1ccc(CNc2nc(NCCN(C)C)nc(N3CCc4ccccc4C3)n2)cc1)c1cccc(C)c1 | 8 nM

What follows are molecules tested against T4, A disintegrin and metalloproteinase with thrombospondin motifs 5 (Homo sapiens) (UniProt Q9UNA0) (assay: Inhibition of ADAMTS5 (unknown origin) using WAAG-3R as substrate at 10 uM preincubated for 15 mins followed by substrate addition measured every 30 secs for 1 hr relative to control).
T4 sequence (whole entry): T1 sequence (Q9UNA0 whole entry)

Row | Structure (SMILES) | inhibition
37 | CCN(C(=O)c1ccc(CNc2nc(NCCN3CCN(C)CC3)nc(N3CCc4cc(OC)c(OC)cc4C3)n2)cc1)c1cccc(C)c1 | 30%

Each molecule was assayed against Collagenase 3 (Homo sapiens, UniProt P45452) (assay: Inhibition of human recombinant MMP13 using 5-FAMTPGPLGL[Dap(DNP)]ARRK(5-TAMRA)-amide as substrate after 45 mins).

Row | Structure (SMILES) | IC50
38 | CCN(C(=O)c1ccc(CNc2nc(NCCN3CCN(C)CC3)nc(N3CCc4cc(OC)c(OC)cc4C3)n2)cc1)c1cccc(C)c1 | > 10000 nM
